Data from patent US5652366A, “DI (1R)-(-)camphosulfonic acid) salt, preparation thereof and use thereof” (Rhone-Poulenc Rorer Pharmaceuticals Inc., priority 1995, dated 1997).
Where two headings read alike, the source gives them in different places.

How the values were obtained:
A1 adenosine receptor = target: T1, A1 adenosine receptor (Rattus norvegicus, UniProt P25099); test: biochemical; settings: rat whole brain membranes, 3H-CHA; Table II; read-out: Adenosine Receptor Binding Activity/IC50 (nM) A1
T1 sequence (P25099 1-326): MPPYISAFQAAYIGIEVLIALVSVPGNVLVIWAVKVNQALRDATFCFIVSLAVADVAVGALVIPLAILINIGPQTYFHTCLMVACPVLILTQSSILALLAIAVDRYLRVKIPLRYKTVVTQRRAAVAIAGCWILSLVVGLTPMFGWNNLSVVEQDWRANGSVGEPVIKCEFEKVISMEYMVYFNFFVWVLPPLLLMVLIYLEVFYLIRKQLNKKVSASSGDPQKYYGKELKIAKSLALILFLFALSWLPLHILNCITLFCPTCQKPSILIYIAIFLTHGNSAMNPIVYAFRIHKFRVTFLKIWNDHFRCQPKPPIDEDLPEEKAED
Description: Non-specific binding was assessed in the presence of 1 mM theophylline.
The assays were run in glass test tubes in duplicate at 25° C. Once the membranes were added, the tubes were vortexed and incubated at 25° C. for 60 minutes (A1 assay) or 90 minutes (A2 assay) on a rotary shaker. The assay tubes were vortexed halfway through the incubation and again near the end. The assays were terminated by rapid filtration through 2.4 cm GF/B filters using a Brandel Cell Harvestor. The test tubes were washed three times with cold 50 mM tris-HCl (pH 7.7 or 7.4), with filtration being completed within 15 seconds. The damp filter circles were placed in glass scintillation vials filled with 10 ml of Aquasol II (New England Nuclear). The vials were allowed to shake overnight on a rotary shaker and were placed into a liquid scintillation analyzer for two minute counts. IC50 values for receptor binding, i.e. the concentration at which a compound of the invention displaced the radiolabeled standard, were obtained using a curve-fitting computer program (RS/1, Bolt, Beranek and Newman, Boston, Mass.).

A2 adenosine receptor = A2 adenosine receptor (Rattus norvegicus, UniProt P30543); test: biochemical; settings: rat brain striatum membranes, 3H-CGS 21680; Table II; read-out: Adenosine Receptor Binding Activity/IC50 (nM) A2
swine coronary arteries = test: In vitro vasorelaxation in isolated swine coronary arteries (PGF2α-contracted rings); type: cell-based; settings: Sus scrofa, Table II
Description: Swine coronary arteries were obtained from a local slaughter house, dissected carefully and cleaned of fat, blood and adhering tissue. Rings approximately 2-3 mm wide were cut and transferred to water-jacketed tissue baths (10 ml) filled with warm (37° C.), oxygenated (O2 /CO2 :95%/5%) Krebs-Henseleit buffer and mounted on L-shaped hooks between stainless steel rods and a force transducer. […] Rings were equilibrated for 90 minutes with frequent buffer changes at a resting tension of 5 g In order to assure optimal tension development, arterial rings were primed twice with 36 mM KCl and once with 10 μm. PGF2α, before being exposed to 3 μM PGF2α. […] Tension achieved with 3 μM PGF2α was considered .equivalent to 100%; all other values were expressed as a percentage of that maximum.

[1] = tested on: normotensive anesthetized rat; test: In vivo mean arterial pressure and heart rate in normotensive anesthetized rat; settings: iv
Description: Normotensive rats were anesthetized with sodium pentobarbital (50 mg/kg, j.p.) and placed on a heated surgical table. Cannulas were inserted into the femoral artery and […] to allow the measurement of arterial pressure and to facilitate the intravenous administration of test compounds. The animals was allowed to equilibrate for 10 minutes after surgery. Mean arterial pressure was continuously measured and recorded and heart rate was monitored using the arterial pressure pulse to trigger a cardiotachometer. After baseline parameters were established and recorded, increasing doses (1, 3, 10, 30, 100, 300 and 1000 μg/kg) of the compound of the invention to be tested were administered intravenously. Maximal changes in the cardiovascular parameters were observed after each dose of the adenosine agonist. Only one compound was administered per rat.

[2] = dose lowering heart rate by 25%, read-out: Blood Press/Heart Rate Anesthetized Rat HR/ED25
[3] = dose lowering mean arterial pressure by 25%, read-out: Blood Press/Heart Rate Anesthetized Rat MAP/ED25
[4] = 50% reduction in tension, 3 μM PGF2α, read-out: Vasorelaxation in Swine Coronary Artery/IC50

Sequence of A2 adenosine receptor (P30543 whole entry): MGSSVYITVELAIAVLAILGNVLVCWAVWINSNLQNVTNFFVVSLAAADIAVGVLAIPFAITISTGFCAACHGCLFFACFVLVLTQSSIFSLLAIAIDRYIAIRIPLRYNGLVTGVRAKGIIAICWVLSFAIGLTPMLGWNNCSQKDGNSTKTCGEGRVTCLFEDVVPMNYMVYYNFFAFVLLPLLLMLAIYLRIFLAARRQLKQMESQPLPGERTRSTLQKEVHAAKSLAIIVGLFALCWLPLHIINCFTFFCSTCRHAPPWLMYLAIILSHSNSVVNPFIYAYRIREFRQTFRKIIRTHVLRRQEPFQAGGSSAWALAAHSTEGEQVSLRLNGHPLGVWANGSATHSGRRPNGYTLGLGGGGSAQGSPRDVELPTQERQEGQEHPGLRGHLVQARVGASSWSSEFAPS

Compound | IC50 (A1 adenosine receptor) | IC50 (A2 adenosine receptor) | EC50 (swine coronary arteries; read-out: Vasorelaxation in Swine Coronary Artery/IC50 (μM), 50% reduction in tension, 3 μM PGF2α) | ED25 [1, 2] | ED25 [1, 3] | EC50 (swine coronary arteries; [4])
Cc1nc(CCNc2ncnc3c2ncn3[C@@H]2O[C@H](CO)[C@@H](O)[C@H]2O)cs1 [Example 14, N^6-[2-(2'-methyl-4'-thiazolyl)-ethyl]adenosine] | 79.4 nM | > 1000 nM |  |  |  | 
C[C@H](Cc1cc2ccccc2s1)Nc1ncnc2c1ncn2[C@@H]1O[C@H](CO)[C@@H](O)[C@H]1O [Example 15, N^6-[(R)-1-methyl-2-(2'benzo-[b]-thiophenyl)ethyl]adenosine] |  | 1000 nM | 2.45 µM | 1.4 µg/kg | 1.5 µg/kg | 
CC(C)(Cc1cccs1)Nc1ncnc2c1ncn2[C@@H]1O[C@H](CO)[C@@H](O)[C@H]1O [Example 17, N^6-[2-(1,1-dimethyl-2'-thiophenyl)ethyl]adenosine] | 67.6 nM | 5250 nM |  |  |  | 18.8 µM
Cc1csc(CNc2ncnc3c2ncn3[C@@H]2O[C@H](CO)[C@@H](O)[C@H]2O)n1 [Example 18, N^6-[2-(4'-methyl-2'-thiazolyl)-methyl]adenosine] | 166 nM | 52 nM |  | > 10 µg/kg | 2 µg/kg | 0.46 µM
OC[C@H]1O[C@@H](n2cnc3c(NCc4nc(-c5ccccc5)cs4)ncnc32)[C@H](O)[C@@H]1O [Example 19] | 36 nM | 1000 nM |  |  |  | 0.75 µM
CCNC(=O)[C@H]1O[C@@H](n2cnc3c(NCCNc4nc5ccccc5s4)ncnc32)[C@H](O)[C@@H]1O [Example 23] | 0.32 nM | 891 nM |  | 7 µg/kg | 6 µg/kg | 4.4 µM
C[C@H](Cc1sccc1Cl)Nc1ncnc2c1ncn2[C@@H]1O[C@H](CO)[C@@H](O)[C@H]1O [Example 32, N^6-[1-methyl-2-(3-chlorothien-2-yl)ethyl]adenosine] | 0.049 nM |  |  |  |  | 
CCNC(=O)[C@H]1C[C@@H](n2cnc3c(N[C@H](CC)Cc4sccc4Cl)ncnc32)[C@H](O)[C@@H]1O [Example 34] | 1.6 nM | 23 nM |  |  |  | 0.072 µM
CCNC(=O)[C@H]1C[C@@H](n2cnc3c(N[C@H](C)Cc4ccc(Cl)s4)ccnc32)[C@H](O)[C@@H]1O [Example 36, [1S-[1α,2β,3β,4α(S*)]]-4-[7-[[2-(5-chloro-2-thienyl)-1-methylethyl]amino]-3 H-imidazo[4,5-b]pyridin-3-yl]-N-ethyl-2,3-dihydroxycyclopentanecarboxamide] | 8.8 nM | 43.4 nM |  |  |  | 0.493 µM
CCNC(=O)[C@H]1C[C@@H](n2cnc3c(N[C@H](C)Cc4ccc(Cl)s4)ncnc32)[C@@H]2OC(=O)O[C@@H]21 [Example 44, (2S)-2α,3α-dihydroxy-4β-[N6-[2-(5-chloro-2-thienyl)-(1R)-1-methylethyl]amino-9-adenyl]cyclopentane-1β-N-ethylcarboxamide-2,3-carbonate] | 55 nM | 331 nM |  |  |  | 0.316 µM
